In ChEMBL document CHEMBL1138948, “Design, synthesis, and evaluation of proline and pyrrolidine based melanocortin receptor agonists. A conformationally restricted dipeptide mimic approach” (J Med Chem, 2006):
Non-standard residues stand in square brackets, D forms with d. Residues, ends and D or L forms follow the SMILES beside them. 2Nal = N[C@@H](Cc1ccc2ccccc2c1)C(=O)O

Tests used:
[1] = target: T1, Melanocyte-stimulating hormone receptor (Homo sapiens, UniProt Q01726); assay: Agonist activity at human MC1R transfected in HEK293 cells; format: functional, cell-based
Melanocortin receptor 3 [2] = target: T2, Melanocortin receptor 3 (Homo sapiens, UniProt P41968); assay: Displacement of europium labeled NDP-alpha-MSH from human MC3R expressed in HEK293 cells; format: cell-based
[3] = target: Melanocortin receptor (M1 and M4) (Homo sapiens) (UniProt P32245+Q01726); assay: Selectivity for human MC4R over human MC1R; format: protein assay
[4] = target: T1, Melanocyte-stimulating hormone receptor; assay: Displacement of europium labeled NDP-alpha-MSH from human MC1R expressed in HEK293 cells; format: cell-based
Melanocortin receptor 3 [5] = target: T2, Melanocortin receptor 3; assay: Agonist activity at human MC3R transfected in HEK293 cells; format: functional, cell-based
Melanocortin receptor 4 [6] = target: T3, Melanocortin receptor 4 (Homo sapiens, UniProt P32245); assay: Displacement of europium labeled NDP-alpha-MSH from human MC4R expressed in HEK293 cells; format: cell-based
Melanocortin receptor 4 [7] = target: T3, Melanocortin receptor 4; assay: Agonist activity at human MC4R transfected in HEK293 cells; format: functional, cell-based
[8] = Absorptive permeability across Caco-2 cell membrane; format: ADME, cell-based; conditions: human, read-out: permeability (converted)
[9] = Exsorptive permeability across Caco-2 cell membrane; format: ADME, cell-based; conditions: human, read-out: permeability (converted)

T2 sequence (P41968 whole entry): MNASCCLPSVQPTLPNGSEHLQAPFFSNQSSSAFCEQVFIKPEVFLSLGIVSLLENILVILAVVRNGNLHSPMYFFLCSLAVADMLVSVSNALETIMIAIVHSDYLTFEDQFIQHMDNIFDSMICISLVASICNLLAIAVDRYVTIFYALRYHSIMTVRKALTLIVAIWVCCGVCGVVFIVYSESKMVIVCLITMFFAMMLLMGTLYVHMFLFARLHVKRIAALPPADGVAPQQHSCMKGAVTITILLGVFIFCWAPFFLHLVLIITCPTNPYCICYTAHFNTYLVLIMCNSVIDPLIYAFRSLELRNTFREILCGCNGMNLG
T1 sequence (Q01726 whole entry): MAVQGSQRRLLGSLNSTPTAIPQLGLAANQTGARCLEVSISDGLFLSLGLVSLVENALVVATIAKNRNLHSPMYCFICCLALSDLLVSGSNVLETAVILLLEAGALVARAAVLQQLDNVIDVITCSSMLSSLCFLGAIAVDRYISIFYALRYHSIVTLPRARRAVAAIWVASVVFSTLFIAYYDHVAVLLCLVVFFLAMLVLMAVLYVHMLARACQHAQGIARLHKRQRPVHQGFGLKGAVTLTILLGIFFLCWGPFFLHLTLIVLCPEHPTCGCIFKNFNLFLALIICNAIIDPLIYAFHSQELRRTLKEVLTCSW
T3 sequence (P32245 whole entry): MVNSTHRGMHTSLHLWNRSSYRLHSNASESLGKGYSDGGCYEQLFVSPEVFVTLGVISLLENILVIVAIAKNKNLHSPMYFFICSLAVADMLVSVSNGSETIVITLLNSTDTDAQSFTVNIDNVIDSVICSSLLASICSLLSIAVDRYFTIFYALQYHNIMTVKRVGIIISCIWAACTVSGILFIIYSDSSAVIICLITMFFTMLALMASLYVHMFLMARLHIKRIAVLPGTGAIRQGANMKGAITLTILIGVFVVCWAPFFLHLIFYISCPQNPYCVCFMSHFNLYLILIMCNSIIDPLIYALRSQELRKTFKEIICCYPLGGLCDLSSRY

| EC50 [1] [nM] | Ki (Melanocortin receptor 3 [2]) [nM] | Selectivity ratio [3] | Ki [4] [nM] | EC50 (Melanocortin receptor 3 [5]) [nM] | Ki (Melanocortin receptor 4 [6]) [nM] | EC50 (Melanocortin receptor 4 [7]) [nM] | Papp A→B [8] [×10⁻⁶ cm/s] | Papp [9] [×10⁻⁶ cm/s] | SMILES |
| --- | --- | --- | --- | --- | --- | --- | --- | --- | --- |
| 88 | 42 | 4 | 85 | 85 | 21 | 14 | – | – | CC(=O)N[C@@H](Cc1ccc(O)cc1)C(=O)N[C@H](Cc1ccccc1)C(=O)N1C[C@H](OCc2ccc3ccccc3c2)C[C@@H]1CCCN=C(N)N |
| 1220 | 1960 | > 150 | 2970 | 1130 | 14 | 9 | – | – | CC(=O)N[C@@H](Cc1c[nH]cn1)C(=O)N[C@H](Cc1ccccc1)C(=O)N1C[C@@H](OCc2ccc3ccccc3c2)C[C@H]1CCCN=C(N)N |
| 328 | 1490 | – | 893 | 563 | 632 | 184 | – | – | CC(=O)N[C@@H](CCC(N)=O)C(=O)N[C@H](Cc1ccccc1)C(=O)N1C[C@H](OCc2ccc3ccccc3c2)C[C@@H]1C(=O)NCCN=C(N)N |
| 1340 | 501 | 4 | 2050 | 1220 | 559 | 254 | – | – | CC(=O)N[C@@H](Cc1ccc(O)cc1)C(=O)N[C@H](Cc1ccccc1)C(=O)N1C[C@H](OCc2ccc3ccccc3c2)C[C@@H]1C(=O)NCCN=C(N)N |
| 20000 | 22600 | – | 4380 | – | 2010 | 809 | – | – | CNC(=O)[C@H](Cc1ccc2ccccc2c1)NC(=O)[C@H](CCCN=C(N)N)NC(=O)[C@H](N)Cc1ccccc1 |
| 0.045 | 117 | – | 1.3 | 1.3 | 57 | 2.3 | – | – | CC(=O)N[C@@H](Cc1c[nH]cn1)C(=O)N[C@H](Cc1ccccc1)C(=O)N1C[C@@H](OCc2ccc3ccccc3c2)C[C@@H]1CCCN=C(N)N |
| 52 | 219 | – | 55 | 593 | 46 | 17 | – | – | NC(N)=NCCC[C@H]1C[C@@H](OCc2ccc3ccccc3c2)CN1C(=O)[C@@H](Cc1ccccc1)NC(=O)[C@@H]1CCCN1 |
| 0.3 | 26 | – | 0.65 | 15 | 17 | 3.7 | – | – | CC(=O)N[C@@H](Cc1cnc[nH]1)C(=O)N[C@H](Cc1ccccc1)C(=O)N1C[C@H](OCc2ccc3ccccc3c2)C[C@@H]1CCCN=C(N)N |
| 28 | 1260 | – | 125 | 286 | 121 | 54 | – | – | N=C(N)NCCC[C@H]1C[C@H](OCc2ccc3ccccc3c2)CN1C(=O)[C@@H](Cc1ccccc1)NC(=O)[C@@H]1CCCCN1 |
| 1070 | 7160 | – | 1790 | – | 2260 | 515 | – | – | N=C(N)NCCC[C@@H]1C[C@H](OCc2ccc3ccccc3c2)CN1C(=O)[C@@H](Cc1ccccc1)NC(=O)[C@@H]1CCCCN1 |
| 19 | 8100 | – | 19 | 1470 | 4390 | 1090 | – | – | N=C(N)NCCC[C@@H]1C[C@@H](OCc2ccc3ccccc3c2)CN1C(=O)[C@@H](Cc1ccccc1)NC(=O)[C@@H]1Cc2ccccc2CN1 |
| 585 | 403 | – | 611 | 2050 | 137 | 266 | – | – | NC(N)=NCCC[C@H]1C[C@@H](OCc2ccc3ccccc3c2)CN1C(=O)[C@@H](Cc1ccccc1)NC(=O)CCc1ccccc1 |
| 8 | 7230 | – | 4.7 | 3720 | 2880 | 986 | – | – | CC(=O)N[C@@H](Cc1c[nH]cn1)C(=O)N[C@H](Cc1ccccc1)C(=O)N1C[C@H](OCc2ccc3ccccc3c2)C[C@H]1CCCN=C(N)N |
| 539 | 4390 | 4 | 1620 | 825 | 411 | 97 | – | – | N=C(N)NCCNC(=O)[C@H]1C[C@@H](OCc2ccc3ccccc3c2)CN1C(=O)[C@@H](Cc1ccccc1)NC(=O)[C@@H]1Cc2ccccc2CN1 |
| 402 | 15400 | – | 443 | – | 6670 | 20000 | – | – | NC(=O)C[C@H](N)C(=O)N[C@H](Cc1ccccc1)C(=O)N1C[C@H](OCc2ccc3ccccc3c2)C[C@H]1CCCN=C(N)N |
| – | – | – | – | – | – | – | 2.17 | 1.83 | OC[C@@H](O)[C@@H](O)[C@H](O)[C@H](O)CO [MANNITOL] |
| 24 | 703 | – | 15 | 266 | 760 | 249 | – | – | NC(N)=NCCNC(=O)[C@H]1C[C@@H](OCc2ccc3ccccc3c2)CN1C(=O)[C@@H](Cc1ccccc1)NC(=O)[C@@H](N)Cc1c[nH]cn1 |
| 98 | 86 | – | 42 | 232 | 10 | 10 | – | – | N=C(N)NCCC[C@H]1C[C@@H](OCc2ccc3ccccc3c2)CN1C(=O)[C@@H](Cc1ccccc1)NC(=O)[C@@H]1Cc2ccccc2CN1 |

| EC50 [1] [nM] | Ki (Melanocortin receptor 3 [2]) [nM] | Selectivity ratio [3] | Ki [4] [nM] | EC50 (Melanocortin receptor 3 [5]) [nM] | Ki (Melanocortin receptor 4 [6]) [nM] | EC50 (Melanocortin receptor 4 [7]) [nM] | Papp A→B [8] [×10⁻⁶ cm/s] | Papp [9] [×10⁻⁶ cm/s] | SMILES |
| --- | --- | --- | --- | --- | --- | --- | --- | --- | --- |
| 201 | 154 | – | 182 | 313 | 59 | 20 | – | – | CC(=O)N[C@@H](Cc1ccccc1)C(=O)N[C@H](Cc1ccccc1)C(=O)N1C[C@H](OCc2ccc3ccccc3c2)C[C@@H]1CCCN=C(N)N |
| 104 | 3180 | – | 121 | 2470 | 1020 | 501 | – | – | NC(N)=NCCNC(=O)[C@H]1C[C@@H](OCc2ccc3ccccc3c2)CN1C(=O)[C@@H](Cc1ccccc1)NC(=O)C1CCNCC1 |
| 151 | 1240 | – | 381 | 871 | 305 | 291 | – | – | NC(N)=NCCC[C@H]1C[C@@H](OCc2ccc3ccccc3c2)CN1C(=O)[C@H](N)Cc1ccccc1 |
| 1750 | 19200 | – | 1690 | – | 2350 | 20000 | – | – | CC(=O)N[C@@H](Cc1ccc(O)cc1)C(=O)N[C@H](Cc1ccccc1)C(=O)N1C[C@H](OCc2ccc3ccccc3c2)C[C@H]1CCCN=C(N)N |
| 71 | 425 | – | 138 | 68 | 248 | 39 | – | – | CC(=O)N[C@@H](Cc1ccc(O)cc1)C(=O)N[C@H](Cc1ccccc1)C(=O)N1C[C@@H](OCc2ccc3ccccc3c2)C[C@@H]1CCCN=C(N)N |
| 521 | 29100 | – | 1570 | 2990 | 8160 | 1620 | – | – | NC(=O)C[C@H](N)C(=O)N[C@H](Cc1ccccc1)C(=O)N1C[C@@H](OCc2ccc3ccccc3c2)C[C@H]1CCCN=C(N)N |
| 14 | 1200 | – | 13 | 541 | 29 | 5.7 | – | – | CNC(=O)[C@H](Cc1ccc2ccccc2c1)NC(=O)[C@H](CCCN=C(N)N)NC(=O)[C@@H](Cc1ccccc1)NC(=O)[C@H](Cc1c[nH]cn1)NC(C)=O |
| 72 | 529 | – | 562 | 214 | 97 | 36 | – | – | N=C(N)NCCC[C@H]1C[C@H](OCc2ccc3ccccc3c2)CN1C(=O)[C@@H](Cc1ccccc1)NC(=O)[C@@H]1Cc2ccccc2CN1 |
| 45 | 50 | – | 35 | 42 | 18 | 4.3 | – | – | CC(=O)N[C@@H](CCC(N)=O)C(=O)N[C@H](Cc1ccccc1)C(=O)N1C[C@H](OCc2ccc3ccccc3c2)C[C@@H]1CCCN=C(N)N |
| 449 | 7440 | – | 340 | – | 1710 | 10800 | – | – | N=C(N)NCCC[C@@H]1C[C@@H](OCc2ccc3ccccc3c2)CN1C(=O)[C@@H](Cc1ccccc1)NC(=O)[C@@H]1CCCCN1 |
| 1810 | 2880 | – | 2450 | 1170 | 492 | 252 | – | – | CC(=O)N[C@@H](Cc1ccc(O)cc1)C(=O)N[C@H](Cc1ccccc1)C(=O)N1C[C@@H](OCc2ccc3ccccc3c2)C[C@H]1CCCN=C(N)N |
| 1360 | 4180 | – | 1400 | 3150 | 670 | 457 | – | – | N=C(N)NCCC[C@@H]1C[C@H](OCc2ccc3ccccc3c2)CN1C(=O)[C@@H](Cc1ccccc1)NC(=O)[C@@H]1Cc2ccccc2CN1 |
| 4.3 | 835 | – | 103 | 10 | 187 | 8 | – | – | NC(=O)C[C@H](N)C(=O)N[C@H](Cc1ccccc1)C(=O)N1C[C@@H](OCc2ccc3ccccc3c2)C[C@@H]1CCCN=C(N)N |
| 20000 | – | – | – | – | – | – | – | – | CNC(=O)[C@H](Cc1ccc2ccccc2c1)NC(=O)[C@H](CCCN=C(N)N)NC(=O)[C@@H](Cc1ccccc1)NC(=O)[C@H](Cc1ccc(O)cc1)NC(C)=O (Ac-Y[dF]R[2Nal]-NHMe) |
| 390 | 3850 | – | 631 | 1770 | 1380 | 292 | – | – | N=C(N)NCCNC(=O)[C@H]1C[C@@H](OCc2ccc3ccccc3c2)CN1C(=O)[C@@H](Cc1ccccc1)NC(=O)[C@@H]1CCCCN1 |
| 14 | 2860 | – | 35 | 248 | – | – | – | – | CC(=O)N[C@@H](Cc1c[nH]cn1)C(=O)N[C@@H](Cc1ccccc1)C(=O)N[C@@H](CCCN=C(N)N)C(=O)N[C@@H](Cc1c[nH]c2ccccc12)C(N)=O |
| 30 | 156 | – | 40 | 260 | 31 | 14 | – | – | NC(N)=NCCC[C@H]1C[C@@H](OCc2ccc3ccccc3c2)CN1C(=O)[C@@H](Cc1ccccc1)NC(=O)[C@@H]1CCCCN1 |
